{
  "source": "patent US10610104B2",
  "about": "“Gastrointestinal tract detection methods, devices and systems” (priority 2016, dated 2020)",
  "molecules": {"B1": {"name": "Lipopolysaccharide Binding Protein (LBP): Lipopolysaccharide Binding Protein, binds with high affinity to lipid A, the common moiety of LPS (protein, UniProt P18428 26-481, looked up)", "Lipopolysaccharide-binding …": "ANPGLVARITDKGLQYAAQEGLLALQSELLRITLPDFTGDLRIPHVGRGRYEFHSLNIHSCELLHSALRPVPGQGLSLSISDSSIRVQGRWKVRKSFFKLQGSFDVSVKGISISVNLLLGSESSGRPTVTASSCSSDIADVEVDMSGDLGWLLNLFHNQIESKFQKVLESRICEMIQKSVSSDLQPYLQTLPVTTEIDSFADIDYSLVEAPRATAQMLEVMFKGEIFHRNHRSPVTLLAAVMSLPEEHNKMVYFAISDYVFNTASLVYHEEGYLNFSITDDMIPPDSNIRLTTKSFRPFVPRLARLYPNMNLELQGSVPSAPLLNFSPGNLSVDPYMEIDAFVLLPSSSKEPVFRLSVATNVSATLTFNTSKITGFLKPGKVKVELKESKVGLFNAELLEALLNYYILNTFYPKFNDKLAEGFPLPLLKRVQLYDLGLQIHKDFLFLGANVQYMRV"}},
  "key": {"cyclophilin": {"molecular_target": "cyclophilin (Homo sapiens, UniProt P62937)", "sequence (P62937 whole entry)": "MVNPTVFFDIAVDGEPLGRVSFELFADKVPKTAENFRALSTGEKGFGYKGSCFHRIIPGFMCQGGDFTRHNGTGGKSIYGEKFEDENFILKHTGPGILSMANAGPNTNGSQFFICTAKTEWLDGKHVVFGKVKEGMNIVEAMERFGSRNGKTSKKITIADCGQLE", "settings": "voclosporin versus cyclosporine A; cited from earlier work"}, "C. albicans": {"tested_on": "C. albicans", "test": "OD600 assay under simulated GI conditions, fungal contamination with or without anti-fungal recovery media", "type": "cell-based", "settings": "TSB containing 2.5 mg/L Amphotericin B; C. albicans 1×10^3 CFU/mL; FaSSIF-V2; 4 hour incubation", "method": "Experiments were performed in order to simulate an ingestible device that contains sterile media that is inoculated with a sample of fluid from the GI tract and incubated in transit. The experiments were designed to evaluate whether the assay could predict total bacterial counts over a dynamic range of 10^3 CFU/mL to 10^7 CFU/mL under a series of different conditions of pH, […], fungal strains, mucin concentrations. The samples were also incubated under conditions of shear forces and temperature that simulate conditions of an ingestible device in transit within the GI tract.\nGram-negative (Escherichia coli ATCC 25922) and Gram-positive (Staphylococcus epidermidis ATCC 12228) bacterial cultures were diluted in a standard growth media (TSB) over a dynamic range of 10^7 CFU/mL to 10^3 CFU/mL. The assay utilized […], under shear (110 rpm) and at body temperature (37° C.) over a 4 hour incubation period to simulate transit of an ingestible device within the GI tract. Experiments were performed under various conditions as indicated including: different pH levels (6.5, 7.0 and 7.8); […]; […] […] Experiments were conducted in quintuplicate. All testing was completed in simulated jejunal fluid (FaSSIF-V2; available from BioRelevant (London, UK) Cat: V2FA501 Lot: 02-1408-07, pH 6.5) using a 50 μL sample volume and a 4 hour incubation period. […]"}, "[1]": {"tested_on": "inflammatory bowel disease (IBD)", "settings": "numerous murine models; cited from earlier work"}, "human IL-6": {"molecular_target": "human IL-6 (Homo sapiens, UniProt P05231)", "sequence (P05231 30-212)": "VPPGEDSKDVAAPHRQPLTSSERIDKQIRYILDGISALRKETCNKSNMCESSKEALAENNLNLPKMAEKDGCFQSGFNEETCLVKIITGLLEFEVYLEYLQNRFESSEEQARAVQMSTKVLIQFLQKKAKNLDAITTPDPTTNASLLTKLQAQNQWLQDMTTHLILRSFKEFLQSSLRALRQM", "settings": "cited from earlier work"}, "[2]": {"settings": "binding to lipid A, the common moiety of LPS; cited from earlier work"}},
  "data": [
    {"molecule": "C=C/C=C/C[C@@H](C)[C@@H](O)[C@H]1C(=O)N[C@@H](CC)C(=O)N(C)CC(=O)N(C)[C@@H](CC(C)C)C(=O)N[C@@H](C(C)C)C(=O)N(C)[C@@H](CC(C)C)C(=O)N[C@@H](C)C(=O)N[C@H](C)C(=O)N(C)[C@@H](CC(C)C)C(=O)N(C)[C@@H](CC(C)C)C(=O)N(C)[C@@H](C(C)C)C(=O)N1C", "note": "[voclosporin]", "values": [
      {"measurement": "binding affinity for cyclophilin", "setting": "cyclophilin", "value": "comparable"}
    ]},
    {"molecule": "C[C@@H]1[C@H](O)[C@@H](C)/C=C/C=C/C=C/C=C/C=C/C=C/C=C/[C@H](O[C@@H]2O[C@H](C)[C@@H](O)[C@H](N)[C@@H]2O)C[C@@H]2O[C@](O)(C[C@@H](O)C[C@@H](O)[C@H](O)CC[C@@H](O)C[C@@H](O)CC(=O)O[C@H]1C)C[C@H](O)[C@H]2C(=O)O", "note": "[amphotericin B, Amphotericin B]", "values": [
      {"measurement": "background fungal growth (plate counts and optical density)", "setting": "C. albicans", "value": "reduced the background fungal growth"}
    ]},
    {"molecule": "L-glutamic acid polymer with L-alanine, L-lysine and L-tyrosine, acetate (salt) [Glatiramer acetate]", "values": [
      {"measurement": "effect on inflammation and pathological manifestations of IBD", "setting": "[1]", "value": "reduce inflammation and ameliorate the pathological manifestations"}
    ]},
    {"molecule": "siltuximab: a chimeric, human-murine, immunoglobulin (Ig) Gκ mAb that binds and neutralizes human IL-6", "values": [
      {"measurement": "binds and neutralizes human IL-6", "setting": "human IL-6", "value": "high affinity and specificity"}
    ]},
    {"molecule": "B1", "values": [
      {"measurement": "Kd", "setting": "[2]", "value": 1, "unit": "nM"}
    ]}
  ]
}
